Patent US6924309B2 (Children, Youth and Women's Health Service Incorporated, priority 1999, dated 2005)
Like-named read-outs stand apart in the source and are kept apart here. One block for each molecule: values may come before it.

Columns and labels:
5-LO = experiment: Effect on 5-LO catalysed oxidation of arachidonic acid; assay type: biochemical
12-LO = molecular target: T1, 12-LO (Sus scrofa, UniProt P16469); experiment: Effect on 12-LO catalysed oxidation of arachidonic acid; assay type: biochemical, porcine
T1 construct: purchased Cayman Chemical Company
T1 sequence (P16469 1-663): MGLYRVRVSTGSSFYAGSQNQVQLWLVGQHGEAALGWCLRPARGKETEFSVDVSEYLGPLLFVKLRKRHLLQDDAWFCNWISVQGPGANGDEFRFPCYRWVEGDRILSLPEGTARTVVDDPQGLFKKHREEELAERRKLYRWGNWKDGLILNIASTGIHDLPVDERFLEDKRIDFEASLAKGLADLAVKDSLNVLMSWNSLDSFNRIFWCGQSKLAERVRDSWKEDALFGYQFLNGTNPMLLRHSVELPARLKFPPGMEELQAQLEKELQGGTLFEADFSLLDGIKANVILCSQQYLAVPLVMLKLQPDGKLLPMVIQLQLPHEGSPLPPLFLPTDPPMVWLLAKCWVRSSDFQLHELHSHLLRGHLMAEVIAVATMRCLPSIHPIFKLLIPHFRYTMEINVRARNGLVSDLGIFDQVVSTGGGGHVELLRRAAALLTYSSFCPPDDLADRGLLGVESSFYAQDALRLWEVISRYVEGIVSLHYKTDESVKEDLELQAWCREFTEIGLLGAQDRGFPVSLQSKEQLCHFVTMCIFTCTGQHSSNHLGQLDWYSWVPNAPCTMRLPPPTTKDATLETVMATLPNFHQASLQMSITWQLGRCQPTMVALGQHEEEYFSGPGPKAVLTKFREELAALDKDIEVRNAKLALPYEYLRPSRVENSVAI

15-LO = molecular target: T2, 15-LO (Glycine max, UniProt P08170); experiment: Effect on 15-LO catalysed oxidation of arachidonic acid; assay type: biochemical, soybean; conditions: for Ki: mixed inhibition pattern
T2 construct: purchased Sigma Chemical Company
T2 sequence (P08170 1-839): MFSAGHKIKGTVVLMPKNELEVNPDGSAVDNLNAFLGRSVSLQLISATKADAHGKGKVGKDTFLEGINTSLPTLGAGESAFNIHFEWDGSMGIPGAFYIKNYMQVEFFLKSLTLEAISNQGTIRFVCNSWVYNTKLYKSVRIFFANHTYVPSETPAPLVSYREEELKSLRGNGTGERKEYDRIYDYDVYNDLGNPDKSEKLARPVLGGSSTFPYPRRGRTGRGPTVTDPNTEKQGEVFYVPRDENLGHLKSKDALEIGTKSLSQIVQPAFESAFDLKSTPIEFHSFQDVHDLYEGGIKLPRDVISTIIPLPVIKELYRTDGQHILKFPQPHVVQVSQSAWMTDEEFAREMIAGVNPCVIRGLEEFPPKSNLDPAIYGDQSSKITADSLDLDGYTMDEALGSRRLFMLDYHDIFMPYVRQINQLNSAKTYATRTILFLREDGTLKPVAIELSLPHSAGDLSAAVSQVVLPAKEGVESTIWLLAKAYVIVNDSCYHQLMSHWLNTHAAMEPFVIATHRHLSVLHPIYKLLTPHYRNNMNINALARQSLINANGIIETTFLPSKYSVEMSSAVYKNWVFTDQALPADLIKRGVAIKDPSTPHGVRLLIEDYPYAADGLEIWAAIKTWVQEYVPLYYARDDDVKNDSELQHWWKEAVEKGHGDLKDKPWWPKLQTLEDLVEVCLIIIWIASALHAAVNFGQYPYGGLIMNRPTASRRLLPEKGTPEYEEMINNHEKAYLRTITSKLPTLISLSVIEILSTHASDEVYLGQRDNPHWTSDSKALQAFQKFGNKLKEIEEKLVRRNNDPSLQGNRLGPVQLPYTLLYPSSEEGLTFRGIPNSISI

TNF-α = TNF-α production by human peripheral blood leukocytes; assay type: cell-based; conditions: Leukocyte, stimulus S. aureus, read-out: % Inhibition (compared to control) of TNF-α
Experimental: (§1) The effects of the nitroalkanes (Lx1-Lx5) on lymphocyte activation and cytokine production were examined. The ability of the PUFA to suppress mitogen-induced proliferation in response to PHA and S. aureus, and to inhibit cytokine production (TNFα and IFNγ), was assessed.

IFN-γ = IFN-γ production by human peripheral blood leukocytes; assay type: cell-based; conditions: Leukocyte, stimulus PHA, read-out: % Inhibition (compared to control) of IFN-γ
Experimental: as §1

[1] = test system: Plasmodium falciparum isolates 3D7, FC27, K+; experiment: Radiometric (3H-hypoxanthine) assay on asexual blood stages of P. falciparum; assay type: cell-based
Experimental: Using the radiometric assay^(36), the effects of the Lx compounds were examined for antimalarial activity. The Plasmodium falciparum isolates used were 3D7, FC27, K^1 and K^+. These were maintained in human blood group O^+ erythrocytes essentially as described previously using RPM-1640 (HEPES modification) supplemented with 0.25% D-glucose, 0.2% Tess buffer (Sigma Chemical Co, Lt Louis, Mo.) and 10% heat inactivated (56° C., 20 min) human blood group AB serum. Cultures were maintained in tissue culture flasks (Corning, N.Y.) at 37° C. under an atmosphere of 1% 2, 5% CO2 in N2. P. falciparum cultures containing approximately 3.0:% parasitaemia were adjusted to 1×10^8 erythrocytes/ml. To 50 μl of the parasite-erythrocyte culture (5×10^6 erythrocytes) in wells of 96-well microdilution plates wvas added 50 μl of the designated concentration of fatty acid or equivalent amounts of solutions or media. The treated cultures were incubated at 37° C. for 4 h and then pulsed with 50 μl (2.5 μCi) of ^3H-hypoxanthine. After a further 18 h incubation the parasites-erythrocytes were harvested onto glass fibre filter papers using a cell harvester. The amount of radioactivity incorporated was measured in a β-counter. The results have been expressed as % inhibition of parasite growth i.e. the dpm in the fatty acid diluent−dpm in the fatty acid treated cultures/dpm in diluent×100.

[2] = Petri-dish thin film autoxidation of arachidonic acid with thia fatty acids and sulfides (HPLC)
Experimental: A stock solution in dichioromethane (2 ml) containing arachidonic acid 1 (18 mg) and 3-[(3Z,6Z)-nona-3,6dienylthio]propionic acid 106 (18 mg) was prepared with lauric acid (18 mg) as an internal standard. Samples of the stock solution (100 μl) were added to glass Petri-dishes followed by ethanol (400 μl). After evaporation of the solvent, a well-distributed thin film was formed on each Petri-dish. The Petri-dishes were placed in a desiccator, which was then evacuated, filled with oxygen and stored in the darkness. Dishes were removed from the desiccator after 1, 2, 3, 5 and 7 days. The mixture on each dish was redissolved in diethyl ether and transferred to a 2 ml vial. After evaporation of the solvent, the residue was dissolved in the HPLC mobile phase (100 μl) and 10% of the solution was analysed by HPLC using a reverse phase column (octadecylsilane) (4.6 mm×250 mm, 3 μm) and a refractive index detector.
Autoxidation of arachidonic acid was conducted in the presence of compound 19 and lauric acid. Stock solutions of arachidonic acid, compound 19 and lauric acid in dichloromethane with equal concentrations were added to a 25 ml round-bottomed flask, and the solvent was evaporated to leave a thin film on the internal surface of the flask. The flask was then filled with oxygen and kept in the dark. The percentages of arachidonic acid and compound 19 remaining after 7 days were measured by HPLC. The same assay was carried out simultaneously with several flasks but the results were not reproducible. The variation was attributed to differences in oxygen concentration and the surface area of the thin films formed in the flasks. Therefore, in order to establish a reproducible assay for the analysis of the autoxidation of arachidonic acid, Petri-dishes with uniform size (80 mm in diameter) were used instead of flasks for thin film formation and the oxidation was carried out by placing the Petri-dishes in a dessicator filled with oxygen. To assess this method, thin firms of arachidonic acid with lauric acid as a standard were prepared on six Petri-dishes using identical treatment, and then subjected to oxidation in the same dessicator filled with oxygen. After 24 h, the percentage of arachidonic acid recovered following autoxidation in each Petri-dish was determined by HPLC. […] The advantage of using a Petri-dish over a flask is that the thin films on each Petri-dish are spread over the same area, and each Petri-dish is exposed to oxygen to the same extent.
Using the Petri-dish assay method, the effects of the thia PUFAs and sulfides 106 and 108-111, along with compounds 18, 19 and 3-[(Z,Z,Z)-(octadeca-9,12,15-trienylthio)] propionic acid 112 which were available in the laboratory, on the autoxidation of arachidonic acid, were examined. In addition, the stability of these compounds in the presence of arachidonic acid was also investigated. Arachidonic acid and lauric acid as a standard were mixed with each sulfur compound at different ratios and the mixtures were subjected to thin film autoxidation. The mixtures were analysed by HPLC after 1,2,3,5 and 7 days.

[3] = Reaction with tert-butyl hydroperoxide to the sulfoxide; assay type: physicochemical; conditions: CH2Cl2, RT, after 9 h
Text: To further investigate the possible involvement of hydroperoxide-induced sulfoxide formation in the antioxidant behaviour of the γ-thia and β-thia fatty acids 18, 19, 106, 108, 109 and 112, compounds 108 and 109 (in a ratio of 1:1 in CH2Cl2) were allowed to react with tert-butyl hydroperoxide. [drawing 37]
The reaction was monitored by TLC and ^1H NMR analysis. […] The ^1H NMR spectrum of compound 114 contains two multiplets at δ2.88-3.07 and two doublets at δ3.63-3.86 corresponding to the methylene protons on the carbons adjacent to sulfur.

Paw oedema = conditions: in vivo
human neutrophils = experiment: AA-enhanced chemiluminescence in human neutrophils; assay type: cell-based; conditions: neutrophils pretreated with compound
Experimental: Arachidonic acid (AA) is a natural agonist which stimulates oxygen radical production in neutrophils leading to tissue damage during inflammation. Studies were conducted to examine whether or not the Lx compounds could antagonise the effects of AA. Neutrophils were pretreated with Lx compounds and then examined for chemiluminescence response to AA addition. […] The effect of Lx compounds on AA-enhanced chemiluminescence in human neutrophils is shown graphically in FIG. 11.

[4] = ratio arachidonic acid:compound 1:1, 1 day
[5] = ratio arachidonic acid:compound 1:1, 2 days

Structure (SMILES): CCCCCCCCCCCCCCCCCC(CCC(=O)O)[N+](=O)[O-] (stereo not shown) [Lx6, 4-Nitrohenicosanoic acid]
Effect on 5-LO catalysed oxidation of AA (5-LO): Inhibitory
Effect on 5-LO catalysed oxidation of AA (5-LO; listed as 4-nitrohenicosanoic acid): selective inhibitors
Effect on 5-LO catalysed oxidation of AA (5-LO; listed as 6a): inhibiting 5-LO
IC50 (5-LO; read-out: IC50, 5-LO catalysed oxidation of AA): 60 µM
Effect on 12-LO catalysed oxidation of AA (12-LO): Activatory
Effect on 12-LO catalysed oxidation of AA (12-LO; listed as 6a): Neither 8a nor 6a inhibits 12-LO
Effect on 15-LO catalysed oxidation of AA (15-LO): Activatory
Effect on 15-LO catalysed oxidation of AA (15-LO; listed as 6a): not 15LO

Effect on 15-LO catalysed oxidation of AA (15-LO): Nil
Structure (SMILES): CC/C=C\C/C=C\C/C=C\CCCCCCCC[N+](=O)[O-] [Lx2, (z,z,z)-1-Nitro-9,12,15-octadecatriene]
inhibition at 20 µM (TNF-α): 43.7%
inhibition at 20 µM (IFN-γ): 40.4%
Antimalarial activity (in words) [1]: most promising

Structure (SMILES): CCCCC/C=C\C/C=C\C/C=C\C/C=C\CCCC[N+](=O)[O-] [Lx4, (a11-z)-1-Nitro-5,8,11,14-eicosatetraene]
Effect on 5-LO catalysed oxidation of AA (5-LO): Nil
inhibition at 20 µM (TNF-α): 34%
Effect on 12-LO catalysed oxidation of AA (12-LO): Nil
inhibition at 20 µM (IFN-γ): 79.8%
Antimalarial activity on P. falciparum 3D7 (FIG. 1, in words) ([1]; isolate 3D7): activity is lost
Effect on 15-LO catalysed oxidation of AA (15-LO): Nil

Conversion to the sulfoxide by tert-butyl hydroperoxide [3]: 55%
Structure (SMILES): CCCCCCCCCCCCCCSCC(=O)O [Compound 109, 2-Tetradecylthioacetic acid]
Antioxidant effect on autoxidation of arachidonic acid (in words) [2]: not significantly inhibited
Arachidonic acid (%) recovered following autoxidation in the presence of the compound [2, 4]: 53%
Compound (%) recovered following autoxidation with arachidonic acid [2, 4]: 50%
Arachidonic acid (%) recovered following autoxidation in the presence of the compound [2, 5]: 10%
Compound (%) recovered following autoxidation with arachidonic acid [2, 5]: 16%
Compound (%) recovered following autoxidation with arachidonic acid ([2]; ratio arachidonic acid:compound 1:1, 3 days): 17%
Compound (%) recovered following autoxidation with arachidonic acid ([2]; ratio arachidonic acid:compound 1:1, 5 days): 17%
Compound (%) recovered following autoxidation with arachidonic acid ([2]; ratio arachidonic acid:compound 1:1, 7 days): 16%

Structure (SMILES): CCCCCCCCCCCCCCCCCC[N+](=O)[O-] [Lx1, 1-Nitrooctadecane]
Effect on 5-LO catalysed oxidation of AA (5-LO): Nil
Effect on 12-LO catalysed oxidation of AA (12-LO): Nil
Effect in paw oedema (Paw oedema): inflammatory
Effect on 15-LO catalysed oxidation of AA (15-LO): Nil

Structure (SMILES): CCCCCCCCCCCCCCCCCC(CCC(=O)O)(CCC(=O)O)[N+](=O)[O-] [Lx8, 3-Heptadecyl-3-nitropentane-1,5-dicarboxylic acid]
Effect on 5-LO catalysed oxidation of AA (5-LO): Nil
Effect on 12-LO catalysed oxidation of AA (12-LO): Activatory
Effect on 12-LO catalysed oxidation of AA (12-LO; listed as 8a): Neither 8a nor 6a inhibits 12-LO
Effect on 15-LO catalysed oxidation of AA (15-LO): Inhibitory
Effect on 15-LO catalysed oxidation of AA (15-LO; listed as 3-heptadecyl-3-nitropentane-1,5-dicarboxylic acid): selective inhibitors
Effect on 15-LO catalysed oxidation of AA (15-LO; listed as 8a): inhibitory effect
Ki (15-LO; read-out: Ki, 15-LO catalysed oxidation of arachidonic acid): 27.4 µM
Ki (15-LO; read-out: Kl (second inhibitor constant; printed Ki in Table 3), 15-LO catalysed oxidation of arachidonic acid): 55.2 µM

Structure (SMILES): CCCCC/C=C\C/C=C\C/C=C\C/C=C\CCCC(CCC(=O)O)(CCC(=O)O)[N+](=O)[O-] [Lx9, 3-[(a11-Z)-Nonadeca-4,7,10,13-tetraenyl] 4-nitroheptane-1,7-dicarboxylic acid]
Effect on 5-LO catalysed oxidation of AA (5-LO): Activatory
Effect on 12-LO catalysed oxidation of AA (12-LO): Inhibitory
Effect on 12-LO catalysed oxidation of AA (12-LO; listed as 3-(all-Z)-nonadeca4,7,10,13-tetraeny]-3-nitropertane-1,5-dicarboxylic acid): selective inhibitors
Effect on 12-LO catalysed oxidation of AA (12-LO; listed as 8b): significant inhibitory effect
Antimalarial activity (in words) [1]: did not have appreciable antimalarial activity
Inhibition of AA-stimulated oxygen radical production (chemiluminescence) (human neutrophils): particularly evident
Effect on 15-LO catalysed oxidation of AA (15-LO): Nil
